Earlier results on one compound are cited in patent publication US20120251462A1, “Agent For Smoker Dehabituation” (Cognis IP Management GmbH, priority 2011, published 2012).

Each structure is given as a SMILES string.

This data set has as its system nACh receptors. To be noted: exceeds affinity of nicotine.

In the case of `Clc1ccc(C2CC3CCC2N3)cn1` (stereo not shown) [Epibatidin], the “affinity for nACh receptors relative to nicotine” value is recorded as 120 fold.
